Measurements reported in patent publication US20140163044A1, “Compound Chemical Medicine Acting on Respiratory Disease, Preparation Process and Use Thereof” (HUNAN JIUDIAN PHARMACEUTICAL CO., LTD., priority 2011, published 2014).

Legend:
[1] = system: outpatients or inpatients with cough; assay: Trials for observing the clinical effect of the tablet in patients with cough; type: in vivo; details: 100 cases per group, oral, one tablet 3 times a day, 5-day course; for Efficacy: Ineffective: cough not improved or aggravated; for Efficacy: Improved: cough reduced 3 to 2 points or 2 to 1 points; for Efficacy: Effective: cough reduced to 1 point from 3 points; for Efficacy: Clinically controlled: symptoms disappeared completely
Experimental: Trials for observing the clinical effect of the tablet of the present invention was conducted in the People's Hospital of Yongshun County, Hunan Province.
300 outpatients or inpatients with cough caused by acute upper respiratory tract infection, acute tracheitis and bronchitis, community-acquired pneumonia, and acute exacerbation of chronic bronchitis were randomly divided into a treatment group […], 100 patients for each group. Medicines were administered following the double-blind double-dummy positive medicine parallel control method. The tablets of the present invention, the control medicine levodropropizine tablets or carbocisteine tablets were taken by each group, respectively. Each group orally takes the tablets 3 times a day, one tablet (including analog tablet) each time, for a 5-day course of treatment. Other antitussive or expectorant medicine was stopped during the administration. The patients' conventional indicators such as blood pressure, pulse rate, body temperature, respiration, etc.; symptoms of cough; chest x-ray; blood and urine routine tests; liver and kidney functions; adverse reaction records and electrocardiogram were recorded.
Criteria for evaluating the efficacy are as follows: clinically controlled: symptoms disappeared completely; effective: symptoms of cough reduced to 1 point from 3 points; improved: symptoms of cough reduced to 2 points from 3 points or reduced to 1 points from 2 points; ineffective: symptoms of cough were not improved or aggravated.

[2] = system: guinea pigs; assay: Antitussive effect in guinea pigs (induced cough 1 h or 4 h after oral administration); type: in vivo; details: for Effect on latent period of cough and cough times (in words): all dose groups; for Cough times before administration (in 5 min) / Latent period of cough / cough count: oral; for Cough times before administration (in 5 min): baseline before administration
Text: The pharmacodynamic test for the pharmaceutical composition of the present invention: • 1. Studies on the Antitussive Effect
Medicines used in the test:
Test medicine: self-made tablets of the pharmaceutical composition comprising levodropropizine and carbocisteine by the inventors
Positive control medicine: levodropropizine tablets and carbocisteine tablets
150 guinea pigs (half male and half female) with a body mass of 300±25 g are taken and evenly divided into 15 groups, with 10 in each group. The administration group for the tablet of the present invention is divided into high dose group, medium dose group and low dose group, and the tablets are orally administered respectively; the administration groups for the positive control medicine levodropropizine is also divided into high dose group, medium dose group and low dose group. Each dose group is divided into two groups, respectively the group inducing cough at the first hour or the fourth hour after administration.

[3] = 60 mg/kg, four hours after administration
[4] = 60 mg/kg, one hour after administration
[5] = 30 mg/kg, four hours after administration
[6] = 30 mg/kg, one hour after administration
[7] = 120 mg/kg, four hours after administration
[8] = 120 mg/kg, one hour after administration

| SMILES | Effective rate [1] [%] | Efficacy: Ineffective [1] [cases] | Efficacy: Improved [1] [cases] | Efficacy: Effective [1] [cases] | Efficacy: Clinically controlled [1] [cases] | Effect on latent period of cough and cough times (in words) [2] | Cough times before administration (in 5 min) ([2]; 60 mg/kg group, 1 h group) | Cough times before administration (in 5 min) ([2]; 60 mg/kg group, 4 h group) | Latent period of cough [2, 3] [s] | cough count [2, 3] | Latent period of cough [2, 4] [s] | cough count [2, 4] | also measured |
| --- | --- | --- | --- | --- | --- | --- | --- | --- | --- | --- | --- | --- | --- |
| N[C@@H](CSCC(=O)O)C(=O)O [Carbocisteine tablet, carbocisteine] | 86 | 14 | 40 | 18 | 28 | no obviously effect on prolonging the latent period of cough and reducing the cough times | 25.24 ± 4.53 | 26.04 ± 4.37 | 32.56 ± 5.17 | 20 ± 4.24 | 31.28 ± 6.42 | 21.1 ± 3.98 |  |
| OC[C@@H](O)CN1CCN(c2ccccc2)CC1 [Levodropropizine tablet, levodropropizine] | 92 | 8 | 17 | 15 | 60 | effects of prolonging latent period of cough and reducing cough times | 25.41 ± 5.26 | 25.89 ± 4.06 | 40.27 ± 5.29 | 17.2 ± 3.45 | 42.38 ± 5.98 | 17.6 ± 3.97 | Cough times before administration (in 5 min) ([2]; 30 mg/kg group, 1 h group): 25.14 ± 4.37 in 5 min; Cough times before administration (in 5 min) ([2]; 30 mg/kg group, 4 h group): 25.74 ± 3.71 in 5 min; Latent period of cough [2, 5]: 36.34 ± 4.68 s; cough count [2, 5]: 19.4 ± 5.03; Latent period of cough [2, 6]: 38.16 ± 5.88 s; cough count [2, 6]: 19.1 ± 4.15; Cough times before administration (in 5 min) ([2]; 120 mg/kg group, 1 h group): 25.18 ± 5.31 in 5 min; Cough times before administration (in 5 min) ([2]; 120 mg/kg group, 4 h group): 26.27 ± 3.98 in 5 min; Latent period of cough [2, 7]: 42.18 ± 3.18 s; cough count [2, 7]: 15.1 ± 3.97; Latent period of cough [2, 8]: 49.57 ± 6.87 s; cough count [2, 8]: 14.2 ± 4.25 |
